Reference: US7879876B2, “Sulfonamide derivatives and use thereof for the modulation of metalloproteinases” (Merck Serono SA, priority 2005, dated 2011)
Where a name gives a salt, the structure may show the parent alone.

Experiments:
Assay type in all cases: biochemical
[1] = target: metalloelastase (MMP-12) (Homo sapiens, UniProt P39900); experiment: MMP-12 enzyme inhibition assay (coumarin-labelled peptide substrate); conditions: read-out: IC50 MMP12
Method: (§1) Compounds of the invention were tested to assess their activities as inhibitors of MMP-1, MMP-2, MMP-9, MMP-14, MMP-12 and TACE. MMP-9 Assay Protocol
(§2) Compounds of the invention were tested for inhibitory activity against 92 kDa gelatinase (MMP-9) in an assay using a coumarin-labeled peptide substrate, (7-methoxycoumarin-4-yl)acetyl-Pro-Leu-Gly-Leu-(3-[2,4-dinitrophenyl]-L-2,3diaminopropionyl)-Ala-Arg-NH2 (McaPLGLDpaAR) (Knight et al, FEBS Lett. 1992; 263-266).
(§3) Stock solutions were made up as follows: Assay Butter: 100 mM Tris-HCl pH 7.6 containing 100 mM NaCl, 10 mM CaCl2, and 0.05% Brij 35.
(§4) Substrate: 0.4 mM McaPLGLDpaAR (from Bachem) (0.437 mg/ml) stock solution in 100% DMSO (stored at −20° C.). Dilute to 8 μM in assay butter.
(§5) Enzyme: Recombinant human 92 kDa gelatinase (MMP-9; APMA (4-aminophenyl mercuric acetate)-activated if necessary) appropriately diluted in assay butter.
(§6) Test Compounds were prepared initially as 10 mM compound solution in 100% DMSO, diluted to 1 mM in 100% DMSO, then serially diluted 3-fold in 100% DMSO across columns 1-10 of a 96-well microtitre plate Assay concentration range, 100 μM (column 1) to 5.1 nM (column 10).
(§7) The assay was performed in a total volume of 100 μL per well in 96-well microtitre plates. Activated enzyme (20 μL) was added to the wells followed by 20 μL of assay butter. Appropriate concentrations of test compounds dissolved in 10 μL of DMSO were then added followed by 50 μL of McaPLGLDpaAR (8 μM, prepared by dilution of DMSO stock in assay butter). For each as say ten concentrations of test compound were examined in duplicate. Control wells lack either enzyme or test compound. The reactions were incubated at 37° C. for 2 hours. The fluorescence at 405 nm was measured immediately with an SLT Fluostar fluorometer (SL T Labinstruments GmbH, Grödig, Austria) using 320 nm excitation, without stopping the reaction.
(§8) The effect of the test compound was determined from the dose response curve generated by the 10 duplicate concentrations of inhibitor. The IC50 (the concentration of compound required to give a 50% decrease in enzyme activity) was obtained by fitting data to the equation, Y=a+((b−a)/(1+(c/X)^d)). (Y=inhibition achieved for a particular dose; X=the dose in nM; a=minimum y or zero % inhibition; b=maximum y or 100% inhibition; c=is the IC50; d=is the slope). The result was rounded to one significant figure.
Compounds of the invention were tested for inhibitory activity against metalloelastase (MMP-12) in an assay using a coumarin-labelled peptide substrate, (7-methoxycoumarin-4-yl)acetyl-Pro-Leu-Gly-Leu-(3-[2,4-dinitrophenyl]-L-2,3-diaminopropionyl)-Ala-Arg-NH2 (McaPLGLDpaAR) (Knight et al, 1992, above). The protocol for this assay was as described for the MMP-9 assay above.

[2] = target: 92 kDa gelatinase (MMP-9) (Homo sapiens, UniProt P14780); experiment: MMP-9 enzyme inhibition assay (coumarin-labeled peptide substrate); conditions: read-out: IC50 MMP9
Method: as §1, §2, §3, §4, §5, §6, §7, §8

[3] = target: MMP13 (Homo sapiens, UniProt P45452); experiment: MMP13 inhibition (Table 1); conditions: read-out: percentage inhibition MMP13
[4] = target: T1, gelatinase A (MMP-2) (Homo sapiens, UniProt P08253); experiment: MMP-2 enzyme inhibition assay (coumarin-labelled peptide substrate); conditions: read-out: IC50 MMP2
T1 sequence (P08253 110-660): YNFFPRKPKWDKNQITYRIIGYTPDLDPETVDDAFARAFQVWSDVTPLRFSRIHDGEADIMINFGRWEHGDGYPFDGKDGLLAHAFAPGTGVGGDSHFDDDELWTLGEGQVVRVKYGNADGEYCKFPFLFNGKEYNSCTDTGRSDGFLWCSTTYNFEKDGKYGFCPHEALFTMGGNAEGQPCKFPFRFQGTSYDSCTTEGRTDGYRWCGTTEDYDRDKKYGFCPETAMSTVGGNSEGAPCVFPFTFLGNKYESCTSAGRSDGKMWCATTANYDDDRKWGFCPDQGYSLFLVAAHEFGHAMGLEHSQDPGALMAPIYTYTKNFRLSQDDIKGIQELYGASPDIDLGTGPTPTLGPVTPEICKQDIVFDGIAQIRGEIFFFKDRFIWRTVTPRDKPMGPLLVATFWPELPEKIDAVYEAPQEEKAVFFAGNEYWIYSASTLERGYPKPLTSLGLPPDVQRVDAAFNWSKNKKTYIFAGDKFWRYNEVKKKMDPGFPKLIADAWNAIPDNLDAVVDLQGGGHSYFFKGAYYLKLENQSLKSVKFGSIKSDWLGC
Method: Compounds of the invention were tested to assess their activities as inhibitors of MMP-1, MMP-2, MMP-9, MMP-14, MMP-12 and TACE. MMP-9 Assay Protocol […]
as §3
Substrate: 0.4 mM McaPLGLDpaAR (from Bachem) (0.437 mg/ml) stock solution in 100% DMSO (stored at −20° C.). Dilute to 8 μM in assay butter. […]
as §6, §7, §8
(§9) Compounds of the invention were tested for inhibitory activity against gelatinase A (MMP-2) in an assay using a coumarin-labelled peptide substrate, (7-methoxycoumarin-4-yl)acetyl-Pro-Leu-Gly-Leu-(3-[2,4-dinitrophenyl]-L-2,3diaminopropionyl)-Ala-Arg-NH2 (Mca PLGLDpaAR) (Knight et al, 1992, above). The protocol for this assay was as described for the MMP-9 assay above.

[5] = target: MMP-14 (Homo sapiens, UniProt P50281); experiment: MMP-14 enzyme inhibition assay (coumarin-labelled peptide substrate); conditions: @ 5 μM; read-out: percentage inhibition MMP14
Method: as §1, §2, §3, §4, §5, §6, §7, §8
as §9, with “MMP-14” for “gelatinase A (MMP-2)”, “PLGLD paAR)” for “PLGLDpaAR)”

[6] = target: T2, collagenase (MMP-1) (Homo sapiens, UniProt P03956); experiment: MMP-1 enzyme inhibition assay (coumarin-labelled peptide substrate); conditions: @ 5 μM; read-out: percentage inhibition MMP1
T2 sequence (P03956 100-469): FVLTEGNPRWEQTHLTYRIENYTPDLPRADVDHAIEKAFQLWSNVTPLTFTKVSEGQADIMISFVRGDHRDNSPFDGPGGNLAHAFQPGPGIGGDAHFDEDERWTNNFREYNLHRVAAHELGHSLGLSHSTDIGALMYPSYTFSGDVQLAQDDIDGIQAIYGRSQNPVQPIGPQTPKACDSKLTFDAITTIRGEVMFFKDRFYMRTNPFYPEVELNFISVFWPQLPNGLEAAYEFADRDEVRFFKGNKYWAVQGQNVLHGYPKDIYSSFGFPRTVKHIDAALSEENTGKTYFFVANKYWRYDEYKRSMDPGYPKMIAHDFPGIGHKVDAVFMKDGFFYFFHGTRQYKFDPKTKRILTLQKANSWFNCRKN
Method: as §1, §2, §3, §4, §5, §6, §7, §8
as §9, with “collagenase (MMP-1)” for “gelatinase A (MMP-2)”

Chain of 92 kDa gelatinase (MMP-9) (P14780 107-707 limits assumed): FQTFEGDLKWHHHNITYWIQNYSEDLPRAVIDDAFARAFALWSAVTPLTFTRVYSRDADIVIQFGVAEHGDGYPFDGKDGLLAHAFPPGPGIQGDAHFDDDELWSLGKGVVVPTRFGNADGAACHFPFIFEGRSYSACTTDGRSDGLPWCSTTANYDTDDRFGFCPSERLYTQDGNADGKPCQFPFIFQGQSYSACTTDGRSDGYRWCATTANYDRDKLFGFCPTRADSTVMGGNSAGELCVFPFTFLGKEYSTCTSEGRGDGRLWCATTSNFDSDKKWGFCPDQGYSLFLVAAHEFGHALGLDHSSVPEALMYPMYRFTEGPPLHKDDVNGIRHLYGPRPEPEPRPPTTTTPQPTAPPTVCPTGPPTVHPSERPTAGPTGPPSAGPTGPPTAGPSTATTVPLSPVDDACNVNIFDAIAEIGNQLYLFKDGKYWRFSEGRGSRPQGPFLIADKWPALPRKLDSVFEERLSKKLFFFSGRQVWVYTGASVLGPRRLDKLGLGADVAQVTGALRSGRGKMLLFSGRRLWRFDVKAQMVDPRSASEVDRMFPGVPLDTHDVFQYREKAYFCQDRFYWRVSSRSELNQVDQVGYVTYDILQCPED
Chain of metalloelastase (MMP-12) (P39900 106-470): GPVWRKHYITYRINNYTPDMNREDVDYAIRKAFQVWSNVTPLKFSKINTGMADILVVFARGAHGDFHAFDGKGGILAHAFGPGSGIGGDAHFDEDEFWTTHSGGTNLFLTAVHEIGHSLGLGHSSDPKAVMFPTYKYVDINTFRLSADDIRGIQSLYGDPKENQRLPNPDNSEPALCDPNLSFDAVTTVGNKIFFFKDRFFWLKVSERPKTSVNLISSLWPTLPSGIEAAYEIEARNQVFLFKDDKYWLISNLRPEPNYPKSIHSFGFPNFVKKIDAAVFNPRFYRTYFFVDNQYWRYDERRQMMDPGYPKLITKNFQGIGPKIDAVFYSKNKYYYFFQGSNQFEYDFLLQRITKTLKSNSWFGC

| IC50 [1] | IC50 [2] | inhibition at 0.1 µM [3] | inhibition at 5 µM [3] | IC50 [4] | inhibition at 5 µM [5] | inhibition at 5 µM [6] | SMILES |
| --- | --- | --- | --- | --- | --- | --- | --- |
| 0.016 µM | > 5 µM | 16% | 97% | 0.759 µM | 70% | 32% | O=CN(O)C(CS(=O)(=O)N1CCc2ccccc2C1)c1cccs1 (stereo not drawn) [Example 5, N-[2-(3,4-dihydroisoquinolin-2(1H)-ylsulfonyl)-1-(2-thienyl)ethyl]-N-hydroxyformamide] |
| 0.627 µM | > 5 µM | – | 41% | > 5 µM | 8% | 5% | CC(C)(C(CS(=O)(=O)N1CCc2ccccc2C1)N(O)C=O)N1CCOCC1 (stereo not drawn) [Example 8, N-{1-[(3,4-dihydroisoquinolin-2(1H)-ylsulfonyl)methyl]-2-methyl-2-morpholin-4-ylpropyl}-N-hydroxyformamide] |
| 0.026 µM | > 5 µM | 15% | – | – | – | – | O=CN(O)C(CS(=O)(=O)N1CCc2ccccc2C1)c1cccnc1 (stereo not drawn) [Example 11, N-[2-(3,4-dihydroisoquinolin-2(1H)-ylsulfonyl)-1-pyridin-3-ylethyl]-N-hydroxyformamide, hydrochloride salt] |
| 0.28 µM | > 5 µM | – | – | > 5 µM | 0% | 0% | COc1cc2c(cc1OC)CN(S(=O)(=O)CC(N(O)C=O)C(C)(C)C)CC2 (stereo not drawn) [Example 20, N-(1-{[(6,7-dimethoxy-3,4-dihydroisoquinolin-2(1H)-yl)sulfonyl]methyl}-2,2-dimethylpropyl)-N-hydroxyformamide] |
